Data as given in patent US7482379B2, “Propenoyl hydrazides” (priority 2004, dated 2009).

What was measured:
[1] = molecular target: Clostripain (Hathewaya histolytica, UniProt P09870); conditions: Table 3; Z-Phe-Arg-AMC substrate; pH 7.6
Excerpt: Clostripain. […] All data obtained was processed by pseudo-first order kinetics,

[2] = system: Gingipain R; assay: Gingipain R inhibition; format: biochemical; conditions: Table 3
[3] = molecular target: Gingipain K (Porphyromonas gingivalis, UniProt Q51817); assay: biochemical; format: biochemical; conditions: for k2 Gingipain K: Table 3, Suc-Ala-Phe-Lys-AMC substrate, pH 8.0; for kinact/KI: pH 8, read-out: kobs/[I] Gingipain K
Chain of Gingipain K (Q51817 229-1732 limits assumed): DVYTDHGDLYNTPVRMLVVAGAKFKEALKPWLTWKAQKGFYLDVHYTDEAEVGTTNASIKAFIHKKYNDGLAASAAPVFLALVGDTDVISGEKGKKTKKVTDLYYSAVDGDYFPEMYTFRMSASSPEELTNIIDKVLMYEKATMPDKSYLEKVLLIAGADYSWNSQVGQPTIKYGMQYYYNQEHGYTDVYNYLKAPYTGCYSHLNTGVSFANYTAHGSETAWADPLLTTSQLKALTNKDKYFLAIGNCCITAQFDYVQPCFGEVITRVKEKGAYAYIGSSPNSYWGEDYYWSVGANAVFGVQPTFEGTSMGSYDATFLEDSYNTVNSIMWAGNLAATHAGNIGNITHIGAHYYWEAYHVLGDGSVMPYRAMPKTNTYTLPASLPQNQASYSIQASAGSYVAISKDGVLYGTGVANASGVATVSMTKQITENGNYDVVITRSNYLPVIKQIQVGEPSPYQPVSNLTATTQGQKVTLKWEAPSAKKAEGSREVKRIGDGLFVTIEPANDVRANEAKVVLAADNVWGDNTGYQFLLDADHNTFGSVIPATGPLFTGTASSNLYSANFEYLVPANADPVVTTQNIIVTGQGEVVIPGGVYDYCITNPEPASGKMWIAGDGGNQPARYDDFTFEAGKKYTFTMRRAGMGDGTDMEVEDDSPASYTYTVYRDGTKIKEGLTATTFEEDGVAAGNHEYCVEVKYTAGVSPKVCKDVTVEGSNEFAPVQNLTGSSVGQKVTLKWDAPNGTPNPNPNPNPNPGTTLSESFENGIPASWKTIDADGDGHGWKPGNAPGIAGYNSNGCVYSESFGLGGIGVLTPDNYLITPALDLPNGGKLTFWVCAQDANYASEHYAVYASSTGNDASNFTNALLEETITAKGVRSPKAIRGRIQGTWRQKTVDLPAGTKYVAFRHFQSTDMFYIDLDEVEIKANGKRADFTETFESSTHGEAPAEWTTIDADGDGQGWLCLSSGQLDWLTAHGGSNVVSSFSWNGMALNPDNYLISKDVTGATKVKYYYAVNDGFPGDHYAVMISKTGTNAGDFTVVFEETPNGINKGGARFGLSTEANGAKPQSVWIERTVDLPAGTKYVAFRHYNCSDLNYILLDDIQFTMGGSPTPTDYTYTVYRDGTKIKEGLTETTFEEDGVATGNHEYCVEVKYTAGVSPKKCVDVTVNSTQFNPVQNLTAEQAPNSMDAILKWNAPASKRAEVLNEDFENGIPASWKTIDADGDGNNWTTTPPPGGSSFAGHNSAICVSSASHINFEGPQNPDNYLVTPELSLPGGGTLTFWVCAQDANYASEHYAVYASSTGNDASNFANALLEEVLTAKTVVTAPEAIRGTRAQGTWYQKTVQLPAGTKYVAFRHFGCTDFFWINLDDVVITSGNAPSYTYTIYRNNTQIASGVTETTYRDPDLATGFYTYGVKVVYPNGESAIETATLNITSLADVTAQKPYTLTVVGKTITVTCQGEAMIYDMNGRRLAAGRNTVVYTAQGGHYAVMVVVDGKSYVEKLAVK

[4] = molecular target: T1, Papain (Carica papaya, UniProt P00784); assay: Papain incubation inhibition assay; format: biochemical; conditions: for kinact/KI: pH 7.5, read-out: kobs/[I] Papain
T1 sequence (P00784 134-345): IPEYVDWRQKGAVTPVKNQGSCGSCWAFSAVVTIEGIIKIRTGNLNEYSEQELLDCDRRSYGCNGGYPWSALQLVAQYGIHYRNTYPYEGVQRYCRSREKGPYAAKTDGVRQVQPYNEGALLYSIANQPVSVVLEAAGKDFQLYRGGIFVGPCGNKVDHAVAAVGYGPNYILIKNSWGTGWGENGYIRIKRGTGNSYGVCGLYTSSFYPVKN
Protocol: Pseudo first-order inactivation rate constants were obtained from plots of ln vt/vo versus time.
The incubation method was also used for papain. The inhibition incubation buffer for papain was 50 mM Hepes buffer at pH 7.5, containing 2.5 mM DTT and 2.5 mM EDTA. The assay used the substrate Z-Phe-Arg-pNA (53.7 μM) in the same buffer. The approximate concentration of papain added to the incubation buffer was 0.29 mg/mL. The release of p-nitroanilide was monitored at 405 nm with a Molecular Devices Thermomax microplate reader.

[5] = molecular target: S. mansoni legumain (Schistosoma mansoni, UniProt P09841, N192C); assay: S. mansoni legumain (SmAE) inhibition assay; format: biochemical
Chain of S. mansoni legumain (Schistosoma mansoni, UniProt P09841, N192C) (P09841 32-291 N192C): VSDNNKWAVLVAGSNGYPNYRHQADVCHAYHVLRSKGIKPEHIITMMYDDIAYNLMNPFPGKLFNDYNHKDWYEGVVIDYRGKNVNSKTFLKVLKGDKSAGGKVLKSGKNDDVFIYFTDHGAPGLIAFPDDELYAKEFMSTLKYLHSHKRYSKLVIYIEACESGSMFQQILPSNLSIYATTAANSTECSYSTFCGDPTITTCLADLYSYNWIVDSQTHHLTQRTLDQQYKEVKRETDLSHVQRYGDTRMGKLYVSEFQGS
Protocol: Studies with the propenoyl hydrazides using the schistosome legumain […], (Schistosoma mansoni asparaginyl endopeptidase) were also performed. […] The actual active site enzyme concentration is unknown. The lyophilized enzyme ([…]) was reconstituted in 1.5 mL 0.5 M sodium acetate, pH 4.5 containing 4 mM DTT, and left to stand at 37° C. for 3-4 hours to allow for auto-activation of the zymogen. In a black 96-well microtiter plate, 50 μL of activated enzyme was added to an equal volume of 0.1 M citrate-phosphate buffer pH 6.8 containing 4 mM DTT. Inhibitor stock solutions (20 mM) were prepared in DMSO. Serial dilutions (using water) of inhibitor were added (as 1 μL aliquots) to yield concentrations of between 2 and 0.00002 μM inhibitor. […] After incubating various inhibitor concentrations with enzyme, 100 μL of the same buffer containing 20 μM substrate (Cbz-Ala-Ala-Asn-AMC) was added to the wells and the reaction monitored at room temperature with linear kinetics up to 20 minutes. Inhibitors are tested in duplicate. A plot of the RFU/min versus the inhibitor concentration [μM] permitted calculation of an IC50 value and estimation of the kobs/[I].

[6] = molecular target: Cathepsin B (Homo sapiens, UniProt P07858); assay: Cathepsin B incubation inhibition assay; format: biochemical
Protocol: Papain and Cathepsin B. The incubation method was used to measure the irreversible inhibition of papain and cathepsin B. […] Pseudo first-order inactivation rate constants were obtained from plots of ln vt/vo versus time.

[7] = system: S. mansoni legumain; conditions: background art; cited from earlier work
[8] = system: clan CD proteases; conditions: background art; cited from earlier work

Chain of Clostripain (P09870 51-526): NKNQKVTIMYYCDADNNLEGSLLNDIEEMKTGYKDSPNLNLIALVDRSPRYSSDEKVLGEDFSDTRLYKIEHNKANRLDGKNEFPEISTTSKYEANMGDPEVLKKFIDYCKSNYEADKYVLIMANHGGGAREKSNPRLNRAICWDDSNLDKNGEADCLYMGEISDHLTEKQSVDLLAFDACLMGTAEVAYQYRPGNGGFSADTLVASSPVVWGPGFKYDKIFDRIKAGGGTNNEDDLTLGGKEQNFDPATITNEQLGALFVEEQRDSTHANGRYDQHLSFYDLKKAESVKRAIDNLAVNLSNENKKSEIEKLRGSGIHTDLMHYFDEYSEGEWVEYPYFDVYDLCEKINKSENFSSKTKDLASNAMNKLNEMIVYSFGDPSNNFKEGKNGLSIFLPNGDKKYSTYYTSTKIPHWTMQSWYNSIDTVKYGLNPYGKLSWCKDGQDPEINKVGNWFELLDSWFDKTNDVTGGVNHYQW

Row | Compound | k2 Clostripain [1] | k2 Gingipain R [2] | k2 Gingipain K [3] | other results
1 | CC(C)C[C@H](NC(=O)CCc1ccccc1)C(=O)NN(CCCCN)C(=O)C=CC(=O)NCc1ccccc1 [PhPr-Leu-ALys-CH═CH—CONHCH2Ph] | 1,050 M^−1s^−1 | 20 M⁻¹ s⁻¹ | 236,000 M^−1s^−1 | 
2 | CC(C)CC(NC(=O)CCc1ccccc1)C(=O)NN(CCCCN)C(=O)C=CC(=O)N(C)Cc1cccc2ccccc12 (stereo not shown) | 639 M⁻¹ s⁻¹ | 576 M⁻¹ s⁻¹ | 975,000 M^−1s^−1 | 
3 | CC(C)CC(NC(=O)CCc1ccccc1)C(=O)NN(CCCCN)C(=O)C=CC(=O)N(C)Cc1ccccc1 (stereo not shown) [PhPr-Leu-ALys-CH═CH—CON(Me)CH2Ph] | 6,000 M^−1s^−1 | 79 M⁻¹ s⁻¹ | 1,360,000 M^−1s^−1 | 
4 | C[C@H](NC(=O)OCc1ccccc1)C(=O)N[C@@H](C)C(=O)NN(CC(N)=O)C(=O)/C=C/C(=O)N(Cc1ccccc1)Cc1ccccc1 [Cbz-Ala-Ala-AAsn-CH═CH—CON(Bzl)2, N^2—(N-BenzyloxycarbonylaIanylalanyl)-N^1-carbamoylmethyl-N^1-trans-(3-dibenzylcarbamoylpropenoyl)hydrazine] |  |  |  | kinact/KI [4]: 1 M⁻¹ s⁻¹; IC50 [5]: 45 nM; kinact/KI ([5]; read-out: kobs/[I]): 5800 M⁻¹ s⁻¹; kinact/KI [3]: 2 M⁻¹ s⁻¹
5 | CC(C)CC(NC(=O)CCc1ccccc1)C(=O)NN(CCCCN)C(=O)C=CC(=O)OCc1ccccc1 (stereo not shown) [PhPr-Leu-ALys-CH═CH—COOCH2Ph] | 20,500 M^−1s^−1 | 632 M⁻¹ s⁻¹ |  | 
6 | CC(C)CC(NC(=O)CCc1ccccc1)C(=O)NN(CCCNC(=N)N)C(=O)C=CC(=O)N(Cc1ccccc1)Cc1ccccc1 (stereo not shown) [PhPr-Leu-AArg-CH═CH—CON(CH2Ph)2] | 474,000 M^−1s^−1 | 804,000 M^−1s^−1 |  | 
7 | CC(C)C[C@H](NC(=O)CCc1ccccc1)C(=O)NN(CCCN)C(=O)C=CC(=O)N(Cc1ccccc1)Cc1ccccc1 [PhPr-Leu-AOrn-CH═CH—CON(CH2Ph)2] | 541 M⁻¹ s⁻¹ | 541 M⁻¹ s⁻¹ | 61,600 M^−1s^−1 | 
8 | C[C@H](NC(=O)OCc1ccccc1)C(=O)N[C@@H](C)C(=O)NN(CC(N)=O)C(=O)/C=C/C(=O)N1CCc2ccccc21 [Cbz-Ala-Ala-AAsn-CH═CH—CO-indoline, N^2—(N-Benzyloxycarbonylalanylalanyl)-N^1-carbamoylmethyl-N^1-trans-(3-(2,3-dihydroindol-1-yloxo)propenoyl)hydrazine] |  |  |  | IC50 [5]: 70 nM; kinact/KI [3]: 1 M⁻¹ s⁻¹
9 | C[C@H](NC(=O)OCc1ccccc1)C(=O)N[C@@H](C)C(=O)NN(CC(N)=O)C(=O)/C=C/C(=O)NCCc1ccccc1 [Cbz-Ala-Ala-AAsn-CH═CH—CONHCH2CH2Ph, N^2—(N-Benzyloxycarbonylalanylalanyl)-N^1-carbamoylmethyl-N^1-trans-(3-phenethylcarbamoylpropenoyl)hydrazine] |  |  |  | kobs/[I] Papain ([4]; Table 6, legumain specific inhibitors, NI = no inhibition after 20 minutes of incubation): 12 M⁻¹ s⁻¹; kinact/KI [4]: 12 M⁻¹ s⁻¹; IC50 [5]: 600 nM
10 | CC(C)C[C@H](NC(=O)CCc1ccccc1)C(=O)NN(CCCCN)C(=O)C=CC(=O)N(Cc1ccccc1)Cc1ccc2ccccc2c1 | 17,500 M^−1s^−1 | 98 M⁻¹ s⁻¹ | 811,000 M^−1s^−1 | 
11 | CCOC(=O)/C=C/C(=O)N(CC(N)=O)NC(=O)[C@H](C)NC(=O)[C@H](C)NC(=O)OCc1ccccc1 [Cbz-Ala-Ala-AAsn-CH═CH—COOEt, N^2—(N-BenzyloxycarbonylalanylaIanyl)-N^1-carbamoylmethyl-N^1-trans-(3-ethylesterpropenoyl)hydrazine] |  |  |  | kinact/KI [3]: 6 M⁻¹ s⁻¹; kinact/KI ([6]; pH 6, read-out: kobs/[I] Cathepsin B): 1 M⁻¹ s⁻¹
12 | CC(C)C[C@H](NC(=O)[C@H]1O[C@@H]1C(=O)O)C(=O)NCCCCN=C(N)N [Example E-64, E-64] |  |  |  | inhibition of S. mansoni legumain [7]: not inhibited
13 | CC(C)C[C@H](NC(=O)CCc1ccccc1)C(=O)NN(CCCCN)C(=O)C=CC(=O)N(Cc1ccccc1)Cc1ccc(F)cc1 [PhPr-Leu-ALys-CH═CH—CON(Bzl)-p-CH2C6H4F] | 13,800 M^−1s^−1 | 75 M⁻¹ s⁻¹ | 801,000 M^−1s^−1 | 
14 | CC(C)C[C@H](NC(=O)CCc1ccccc1)C(=O)NN(CCCN)C(=O)C=CC(=O)NCc1ccccc1 [PhPr-Leu-AOrn-CH═CH—CONHCH2Ph] |  | 71 M⁻¹ s⁻¹ | 24,700 M^−1s^−1 | 
15 | CC(C)CC(NC(=O)CCc1ccccc1)C(=O)NN(CCCNC(=N)N)C(=O)C=CC(=O)NCc1ccccc1 (stereo not shown) [PhPr-Leu-AArg-CH═CH—CONHCH2Ph] | 287,000 M^−1s^−1 | 555,000 M^−1s^−1 |  | 
16 | C[C@H](NC(=O)OCc1ccccc1)C(=O)N[C@@H](C)C(=O)NN(CC(N)=O)C(=O)/C=C/C(=O)N(C)Cc1ccccc1 [Cbz-Ala-Ala-AAsn-CH═CH—CON(CH3)Bzl, N^2—(N-Benzyloxycarbonylalanylalanyl)-N^1-carbamoylmethyl-N^1-trans-(3-benzylmethylcarbamoylpropenoyl)hydrazine] |  |  |  | kinact/KI [3]: 1 M⁻¹ s⁻¹
17 | CC(C)CC(NC(=O)CCc1ccccc1)C(=O)NN(CCCCN)C(=O)C=CC(=O)N(Cc1ccccc1)Cc1ccccc1 (stereo not shown) [PhPr-Leu-ALys-CH═CH—CON(CH2Ph)2] | 20,000 M^−1s^−1 | 65 M⁻¹ s⁻¹ | 2,130,000 M^−1s^−1 | 
18 | CCOC(=O)C=CC(=O)N(CCCN)NC(=O)C(C)NC(=O)CCc1ccccc1 (stereo not shown) [PhPr-Ala-AOrn-CH═CH—COOEt] |  | 18 M⁻¹ s⁻¹ | 632,000 M^−1s^−1 | 
19 | CC(C)CCNC(=O)[C@H](CC(C)C)NC(=O)[C@H]1O[C@@H]1C(=O)O [Example E-64c, E-64c] |  |  |  | inhibition of clan CD proteases [8]: do not inhibit
20 | CCOC(=O)C=CC(=O)N(CCCN)NC(=O)[C@H](CC(C)C)NC(=O)CCc1ccccc1 [PhPr-Leu-AOrn-CH═CH—COOEt] | 788 M⁻¹ s⁻¹ | 32 M⁻¹ s⁻¹ | 927,000 M^−1s^−1 | kobs/[I] Cathepsin B ([6]; Table 5, gingipain and clostripain specific inhibitors): 3 M⁻¹ s⁻¹
21 | CC(C)CC(NC(=O)CCc1ccccc1)C(=O)NN(CCCCN)C(=O)C=CC(=O)N(Cc1cccc2ccccc12)Cc1cccc2ccccc12 (stereo not shown) [PhPr-Leu-ALys-CH═CH—CON(CH2-1-naphthyl2] | 2,250 M^−1s^−1 | 214 M⁻¹ s⁻¹ | 1,890,000 M^−1s^−1 | 
22 | C[C@H](NC(=O)[C@H](Cc1ccccc1)NC(=O)OCc1ccccc1)C(=O)C=[N+]=[N-] [Cbz-Phe-Ala-CHN2] |  |  |  | inhibition of S. mansoni legumain [7]: not inhibited
23 | CCOC(=O)C=CC(=O)N(CCCNC(=N)N)NC(=O)C(CC(C)C)NC(=O)CCc1ccccc1 (stereo not shown) [PhPr-Leu-AArg-CH═CH—COOEt] | 69,600 M^−1s^−1 |  | 1,580 M^−1s^−1 | 
